Measurements published in patent publication US9765067B2, “Thiophen-2-yl-pyridin-2-yl-1H-pyrazole-4-carboxylic acid derivatives and the use thereof as soluble guanylate cyclase activators” (Novartis AG, priority 2014, dated 2017).

Biological target: T1, soluble guanylate cyclase (human GUCYA3/GUCYB3) overexpressed in CHO cells (Homo sapiens, UniProt Q02108+Q02153)
T1 construct: expressed in transfected cells
T1 sequence (Q02108 1-690 partner): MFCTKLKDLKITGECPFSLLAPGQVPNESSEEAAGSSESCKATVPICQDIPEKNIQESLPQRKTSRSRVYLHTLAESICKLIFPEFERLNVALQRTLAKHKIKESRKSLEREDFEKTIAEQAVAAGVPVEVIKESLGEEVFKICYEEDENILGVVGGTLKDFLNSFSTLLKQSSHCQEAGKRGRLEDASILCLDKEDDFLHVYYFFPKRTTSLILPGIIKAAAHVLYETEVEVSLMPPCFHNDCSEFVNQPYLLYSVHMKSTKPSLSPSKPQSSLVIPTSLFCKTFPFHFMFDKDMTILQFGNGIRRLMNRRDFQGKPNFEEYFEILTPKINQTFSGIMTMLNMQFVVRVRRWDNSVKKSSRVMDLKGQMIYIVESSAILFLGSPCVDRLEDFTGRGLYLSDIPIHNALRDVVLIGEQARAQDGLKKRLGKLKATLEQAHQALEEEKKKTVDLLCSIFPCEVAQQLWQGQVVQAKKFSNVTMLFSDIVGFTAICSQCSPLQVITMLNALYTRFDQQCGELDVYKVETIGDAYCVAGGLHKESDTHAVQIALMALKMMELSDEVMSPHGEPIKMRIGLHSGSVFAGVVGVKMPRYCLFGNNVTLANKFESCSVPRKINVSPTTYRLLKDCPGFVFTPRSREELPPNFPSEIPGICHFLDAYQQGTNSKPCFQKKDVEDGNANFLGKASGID
T1 sequence (Q02153 1-619): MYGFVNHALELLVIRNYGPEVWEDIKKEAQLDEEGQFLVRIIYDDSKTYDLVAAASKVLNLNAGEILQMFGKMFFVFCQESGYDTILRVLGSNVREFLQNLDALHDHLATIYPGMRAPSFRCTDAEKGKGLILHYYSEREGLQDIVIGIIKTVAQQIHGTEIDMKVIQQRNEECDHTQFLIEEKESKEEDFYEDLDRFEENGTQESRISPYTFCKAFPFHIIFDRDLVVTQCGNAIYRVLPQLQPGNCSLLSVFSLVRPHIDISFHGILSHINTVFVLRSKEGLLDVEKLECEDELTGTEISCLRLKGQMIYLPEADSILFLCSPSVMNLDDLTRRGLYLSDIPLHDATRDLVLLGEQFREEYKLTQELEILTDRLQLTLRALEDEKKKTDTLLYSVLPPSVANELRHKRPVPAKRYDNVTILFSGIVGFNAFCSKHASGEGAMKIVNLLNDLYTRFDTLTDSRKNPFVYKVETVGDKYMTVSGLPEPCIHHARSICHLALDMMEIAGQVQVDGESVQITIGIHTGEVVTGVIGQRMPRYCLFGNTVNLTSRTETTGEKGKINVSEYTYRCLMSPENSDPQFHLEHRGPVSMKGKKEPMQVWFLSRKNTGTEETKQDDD
Experiment: CHO cellular assay (cGMP production, HTRF)
Assay type: cell-based
Conditions: CHO K1 clone 8E10 overexpressing human sGC, Cisbio HTRF, 1 h room temperature, 1 mM IBMX, 20 uM ODQ, minimum quantification limit 0.5 nM
Method in brief: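 Stable CHO K1 clone expressing human GUCYA3/GUCYB3. Compounds applied 1 h at room temperature in HBSS, 0.1% BSA, 1 mM IBMX, 20 uM ODQ, 0.5% DMSO. cGMP measured by HTRF and interpolated from a standard curve; EC50 from 4-parameter sigmoidal fit.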

| EC50 [nM] | SMILES |
| --- | --- |
| 1 | Cc1cc(CNc2ccc(C3CCN(C(=O)C4CC4)CC3)cc2C)c(-c2cccc(-n3ncc(C(=O)O)c3C)n2)s1 [Example 16-2, 1-(6-(3-(((4-(1-(Cyclopropanecarbonyl)piperidin-4-yl)-2-methylphenyl)amino)methyl)-5-methylthiophen-2-yl)pyridin-2-yl)-5-methyl-1H-pyrazole-4-carboxylic acid] |
| ≤ 0.5 | Cc1cc(CNc2ccc(C3CCN(C(=O)C4CC4)CC3)cc2)c(-c2cccc(-n3ncc(C(=O)O)c3C)n2)s1 [Example 16-3, 1-(6-(3-(((4-(1-(Cyclopropanecarbonyl)piperidin-4-yl)phenyl)amino)methyl)-5-methylthiophen-2-yl)pyridin-2-yl)-5-methyl-1H-pyrazole-4-carboxylic acid] |
| 1 | CCc1c(C)sc(-c2cccc(-n3ncc(C(=O)O)c3C(F)(F)F)n2)c1COc1ccc(C2CCN(C(=O)C3CC3)CC2)cc1C [Example 17, 1-(6-(3-((4-(1-(Cyclopropanecarbonyl)piperidin-4-yl)-2-methylphenoxy)methyl)-4-ethyl-5-methylthiophen-2-yl)pyridin-2-yl)-5-(trifluoromethyl)-1H-pyrazole-4-carboxylic acid] |
| 7 | Cc1cc(C2CCN(C(=O)C3CC3)CC2)ccc1OCc1c(-c2cccc(-n3ncc(C(=O)O)c3C(F)(F)F)n2)sc(C)c1C(C)C [Example 18-1, 1-(6-(3-((4-(1-(Cyclopropanecarbonyl)piperidin-4-yl)-2-methylphenoxy)methyl)-4-isopropyl-5-methylthiophen-2-yl)pyridin-2-yl)-5-(trifluoromethyl)-1H-pyrazole-4-carboxylic acid] |
| 2 | CCc1c(C(=O)O)cnn1-c1cccc(-c2sc(C)cc2COc2ccc(C3CCN(CC(F)(F)F)CC3)cc2C)n1 [Example 18-2, 5-Ethyl-1-(6-(5-methyl-3-((2-methyl-4-(1-(2,2,2-trifluoroethyl)piperidin-4-yl)phenoxy)methyl)thiophen-2-yl)pyridin-2-yl)-1H-pyrazole-4-carboxylic acid] |
| 2 | CCc1c(C(=O)O)cnn1-c1cccc(-c2sc(C)c(C)c2COc2ccc(C3CCN(CC(F)(F)F)CC3)cc2C)n1 [Example 18-3, 1-(6-(4,5-Dimethyl-3-((2-methyl-4-(1-(2,2,2-trifluoroethyl)piperidin-4-yl)phenoxy)methyl)thiophen-2-yl)pyridin-2-yl)-5-ethyl-1H-pyrazole-4-carboxylic acid] |
| 5.9 | CCc1csc(-c2cccc(-n3ncc(C(=O)O)c3C(F)(F)F)n2)c1COc1ccc(C2CCN(C(=O)C3CC3)CC2)cc1C [Example 18-4, 1-(6-(3-((4-(1-(Cyclopropanecarbonyl)piperidin-4-yl)-2-methylphenoxy)methyl)-4-ethylthiophen-2-yl)pyridin-2-yl)-5-(trifluoromethyl)-1H-pyrazole-4-carboxylic acid] |
| 3.5 | Cc1cc(C2CCN(CC(F)(F)F)CC2)ccc1OCc1c(-c2cccc(-n3ncc(C(=O)O)c3C(F)(F)F)n2)sc(C)c1C [Example 18-5, 1-(6-(4,5-Dimethyl-3-((2-methyl-4-(1-(2,2,2-trifluoroethyl)piperidin-4-yl)phenoxy)methyl)thiophen-2-yl)pyridin-2-yl)-5-(trifluoromethyl)-1H-pyrazole-4-carboxylic acid] |
| 18 | CCc1csc(-c2cccc(-n3ncc(C(=O)O)c3C(F)(F)F)n2)c1COc1ccc(C2CCN(CC(F)(F)F)CC2)cc1C [Example 18-6, 1-(6-(4-Ethyl-3-((2-methyl-4-(1-(2,2,2-trifluoroethyl)piperidin-4-yl)phenoxy)methyl)thiophen-2-yl)pyridin-2-yl)-5-(trifluoromethyl)-1H-pyrazole-4-carboxylic acid] |
| 1 | Cc1cc(C2CCN(C(=O)C3CC3)CC2)ccc1NCc1c(C)csc1-c1cccc(-n2ncc(C(=O)O)c2C(F)(F)F)n1 [Example 19, 1-(6-(3-(((4-(1-(Cyclopropanecarbonyl)piperidin-4-yl)-2-methylphenyl)amino)methyl)-4-methylthiophen-2-yl)pyridin-2-yl)-5-(trifluoromethyl)-1H-pyrazole-4-carboxylic acid] |
| 12 | Cc1csc(-c2cccc(-n3ncc(C(=O)O)c3C(F)(F)F)n2)c1CNc1ccc(C2CCN(C(=O)C3CC3)CC2)cc1 [Example 20-1, 1-(6-(3-(((4-(1-(Cyclopropanecarbonyl)piperidin-4-yl)phenyl)amino)methyl)-4-methylthiophen-2-yl)pyridin-2-yl)-5-(trifluoromethyl)-1H-pyrazole-4-carboxylic acid] |
| ≤ 0.5 | CCc1c(C(=O)O)cnn1-c1cccc(-c2sc(C)c(C)c2CNc2ccc(C3CCN(C(=O)C4CC4)CC3)cc2C)n1 [Example 20-2, 1-(6-(3-(((4-(1-(Cyclopropanecarbonyl)piperidin-4-yl)-2-methylphenyl)amino)methyl)-4,5-dimethylthiophen-2-yl)pyridin-2-yl)-5-ethyl-1H-pyrazole-4-carboxylic acid] |
| 39 | Cc1cc(C2CCN(CC(F)(F)F)CC2)ccc1NCc1c(C)csc1-c1cccc(-n2ncc(C(=O)O)c2C(F)(F)F)n1 [Example 20-3, 1-(6-(4-Methy1-3-(((2-methy1-4-(1-(2,2,2-trifluoroethyl)piperidin-4-yl)phenyl)amino)methyl)thiophen-2-yl)pyridin-2-yl)-5-(trifluoromethyl)-1H-pyrazole-4-carboxylic acid] |
| ≤ 0.5 | CCC(=O)N1CCC(c2ccc(OCc3cc(C)sc3-c3cccc(-n4ncc(C(=O)O)c4C(F)(F)F)n3)c(C)c2)CC1 [Example 21, 1-(6-(5-Methyl-3-((2-methyl-4-(1-propionylpiperidin-4-yl)phenoxy)methyl)thiophen-2-yl)pyridin-2-yl)-5-(trifluoromethyl)-1H-pyrazole-4-carboxylic acid] |
| 2 | CCc1cc(COc2ccc(C3CCN(C(=O)C4CC4)CC3)cc2C)c(-c2cccc(-n3ncc(C(=O)O)c3C(F)(F)F)n2)s1 [Example 22-1, 1-(6-(3-((4-(1-(Cyclopropanecarbonyl)piperidin-4-yl)-2-methylphenoxy)methyl)-5-ethylthiophen-2-yl)pyridin-2-yl)-5-(trifluoromethyl)-1H-pyrazole-4-carboxylic acid] |
| 38 | O=C(O)c1cnn(-c2cccc(-c3sccc3COc3ccc4c(c3)CCN(Cc3ccccn3)C4)n2)c1C(F)(F)F [Example 23, 1-(6-(3-(((2-(Pyridin-2-ylmethyl)-1,2,3,4-tetrahydroisoquinolin-6-yl)oxy)methyl)thiophen-2-yl)pyridin-2-yl)-5-(trifluoromethyl)-1H-pyrazole-4-carboxylic acid] |
| 6 | CCc1cc(NCc2cc(C)sc2-c2cccc(-n3ncc(C(=O)O)c3C(F)(F)F)n2)ccc1C1CCN(C(=O)C2CC2)CC1 [Example 24, 1-(6-(3-(((4-(1-(Cyclopropanecarbonyl)piperidin-4-yl)-3-ethylphenyl)amino)methyl)-5-methylthiophen-2-yl)pyridin-2-yl)-5-(trifluoromethyl)-1H-pyrazole-4-carboxylic acid] |
| ≤ 0.5 | Cc1cc(CCc2ccc(C3CCN(C(=O)C4CC4)CC3)cc2C)c(-c2cccc(-n3ncc(C(=O)O)c3C(F)(F)F)n2)s1 [Example 25, 1-(6-(3-(4-(1-(Cyclopropanecarbonyl)piperidin-4-yl)-2-methylphenethyl)-5-methylthiophen-2-yl)pyridin-2-yl)-5-(trifluoromethyl)-1H-pyrazole-4-carboxylic acid] |
| ≤ 0.5 | Cc1cc(C2CCN(C(=O)C3CC3)CC2)ccc1CCc1ccsc1-c1cccc(-n2ncc(C(=O)O)c2C(F)(F)F)n1 [Example 26, 1-(6-(3-(4-(1-(Cyclopropanecarbonyl)piperidin-4-yl)-2-methylphenethyl)thiophen-2-yl)pyridin-2-yl)-5-(trifluoromethyl)-1H-pyrazole-4-carboxylic acid] |
